SMILES strings stand for the structures.

Assay [1] deals with T1, short form of the GPR120 receptor (Homo sapiens, UniProt Q5NUL3).
T1 construct: host or cells: PathHunter CHO-K1 GPR120S β-Arrestin Cell Line
T1 sequence (Q5NUL3 1-361): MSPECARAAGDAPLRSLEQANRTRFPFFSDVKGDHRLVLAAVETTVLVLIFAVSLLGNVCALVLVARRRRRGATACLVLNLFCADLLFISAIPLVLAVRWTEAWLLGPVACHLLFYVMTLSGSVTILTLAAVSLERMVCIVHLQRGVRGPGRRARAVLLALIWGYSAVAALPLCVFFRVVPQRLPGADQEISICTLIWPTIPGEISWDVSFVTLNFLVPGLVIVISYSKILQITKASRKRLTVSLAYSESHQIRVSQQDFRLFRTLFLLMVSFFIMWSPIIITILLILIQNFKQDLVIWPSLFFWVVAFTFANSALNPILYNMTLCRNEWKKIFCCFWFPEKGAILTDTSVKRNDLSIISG
Put plainly: Human GPR120 DiscoveRx PathHunter beta-arrestin assay, Procedure β-arrestin B. The class given is cell-based. The conditions noted are these: PathHunter CHO-K1 GPR120S β-Arrestin cells, 5000 cells/well; read-out: hGPR120 β-arrestin B EC50. The source says: The binding of an agonist (medium/long chain fatty acids or small molecule agonists) to the G-protein-coupled receptor GPR120 activates phospholipase C, leading to release of intracellular Ca^+2 through the generation of inositol 1,4,5-trisphosphate (InsP3 or IP3). GPR120 activation can also trigger intracellular signaling via recruitment of Beta-Arrestin. In the present method, agonist-induced activation of the human GPR120 receptor is monitored through the use of PathHunter CHO-K1 GPR120 Beta-Arrestin Cell Line engineered by DiscoveRx, as detailed below. The cell lines are designed to co-express both the ProLink/Enzyme Donor (PK)-tagged GPCR and the Enzyme […] (EA)-tagged Beta-Arrestin fusion proteins. Upon GPR120 receptor stimulation/activation, the EA-tagged Beta-Arrestin portion is translocated to the tagged receptor, where the two enzyme fragments are brought within close proximity. Under these conditions, these fragments can interact and form an active Beta-gal enzyme complex through Enzyme Fragment Complementation (EFC). This active Beta-gal complex can enzymatically hydrolyse the substrate to produce a detectable light signal; therefore, activation as a function of agonist concentration can be expressed as an EC50 value to determine relative compound activities. This in vitro assay therefore serves to assess compound agonist activity of the GPR120.
In Procedure β-arrestin B the cells used were PathHunter CHO-K1 GPR120S β-Arrestin Cell Line, expressing the short form of the GPR120 receptor (Accession #NM 181745), with 5000 cells/well.
The selected CHO-K1 GPR120 β-Arrestin cells were cultured in Ham's F12 media supplemented with 10% fetal bovine serum (FBS), 1% Glutamine, 1×p/s, 800 μg/mL G418 and 300 μg/mL Hygromycin B (for selection). Cell stocks were maintained and grown in a sub-confluent state using standard cell culture procedures. The day before the experiment, the cells were harvested with non-enzymatic cell dissociation buffer and re-suspended in complete growth media at the desired concentration. A Corning 384-plate was then seeded with the proper number of cells in a volume of 25 μL, per well. The seeded plates were incubated overnight at 37° C.
On the day of the experiment, the Assay Buffer containing (a) HBSS with Ca^++ and Mg^++, (b) 20 mM HEPES, and (c) 0.1% BSA stabilizer (pH 7.4) was prepared. The growth medium was gently removed from the cell plates and 20 μL of Assay Buffer added to each well. The plate was then incubated at 37° C. for 60 min. Test compounds were serially diluted in Assay Buffer to desired concentrations (more particularly to one or more of the following μM concentrations: 25, 12.5, 6.25, 3.125, 1.5625, 0.78125, 0.390625, 0.1953125, 0.09765625, 0.048828125, 0.024414063, 0.012207031). Five μL of compound dilution was then added to each well and the plate incubated at 37° C. for 90 min. The detection reagents were prepared according to the manufacture's instruction. Twelve μL of the detection reagents were added to each well and the plate incubated at room temperature for 60 min.
The plates were read on an EnVision instrument, using Protocol name: Luminescence, Plate type: 384 Costar, Measurement height: 3 mm, Measurement time: 1 s, Aperture: 384 Plate aperture. The % activity relative to the positive control was calculated using the following equation:
The % Activity values were plotted versus the concentration of test compound and fitted to a sigmoidal dose-response curve with a Hill slope=1 (fixed value) using nonlinear regression with GraphPad Prism 5.0 to calculate the EC50 values. The Fitting Equation was: Y=Bottom+(Top-Bottom)/(1+10^((Log EC50−X)*HillSlope)), where X is the log of the concentration and Y is the response.

The target in another assay is T2, Human GPR120 short form (Homo sapiens, UniProt Q5NUL3).
T2 construct: expressed in transfected cells
T2 sequence (Q5NUL3 1-361): T1 sequence (Q5NUL3 1-361)
Put plainly: Human GPR120 calcium flux assay, Procedure Calcium A. The class given is cell-based. The conditions noted are these: HEK-293 cells, FLIPR, 2500 cells/well; read-out: GPR120 Ca2+ Assay A EC50. The method, then: These cells are first loaded with the Ca^+2 sensitive dye, Fluo-4 NR. Upon stimulation, intracellular released Ca^+2 can bind to the dye and alter its fluorescence intensity. This increase in fluorescence signal, and thus the flux in intracellular [Ca^2+], is detected and quantitated by fluorescence imaging using a FLIPR reader. The effect of the agonist is measured as a function of concentration and used to calculate an EC50 based upon a response curve.
In this procedure 2500 cells/well were employed.
A Human GPR120 clone (Genbank accession number NM_001195755.1) was placed into the pcDNA3.1 mammalian expression vector carrying the neomycin resistance gene. A stable mammalian cell was generated by placing the above clone into a HEK293 background. […] Cells were split 2 times a week to keep the cells in the log-phase growth.
In preparation for the assay, HEK cells stably transfected with Human GPR120 (2.5K cells per well in 25 uL growth medium) were seeded into 384-well plates and then incubated overnight (37° C., 5% CO2). The next day, the media was changed to 20 μL assay buffer and the cell starved for 1 h at 37° C. The dye loading solution (2× dye) was prepared using 10 mL assay buffer, 100 μL of 250 mM probenecid, 1 bottle of Component A, and 20 μl of dye in DMSO. Twenty μL of the 2× dye loading buffer was then added to each well. The plates were incubated at 37° C. for 30 min, then at room temperature for an additional 15 minutes, before performing the assay on FLIPR.
The assay was performed on a FLIPR plate reader using the following parameters. Baseline was read for 10 seconds at 1 sec intervals. The program was set to transfer 10 μL of ligand from compound plate to cell plate after baseline reading. Aspiration was executed at: 10 μL/sec speed, 4.6 μL height; Dispensing was executed at: 30 μL/sec speed, 45 μL height. After compound addition, each well was read for 300 sec, with measurements collected at 1 sec intervals.
The kinetic data from the FLIPR was based upon a 5 minute window for data collection. The fluorescence of each sample well was used for individual calculations of a normalized RFU value, which was defined as maximum response minus the minimum response. […] The Fitting Equation was: Y=Bottom+(Top-Bottom)/(1+10^((Log EC50−X)*HillSlope)), where X is the log of the concentration and Y is the response.
A general note: A change in cytosolic calcium serves as a functional read-out for many receptors and channels.

The test system of the next assay is C57bl/6J Mice. Put plainly: GPR120 C57bl6 mouse IPGTT. The class given is in vivo. To be noted: dosed 30 min prior to glucose IP 1.5 g/kg. The method, then:
(§1) Male, C57bl/6J Mice were ordered in at 8 weeks of age from Jackson Labs. Individual mice weighed anywhere in the range of 25-30 grams on study day. The mice were fasted, with removal of food occurring at 7 am on the morning of the study. Animals were moved into the room at 10:00 am, to give them time to acclimate. Glucose (insulin syringes) was drawn up either the night before or the morning of the study. Glucose was dosed (IP) at 1.5 g/kg at 7.5 ml/kg (20% glucose straight TEKNOVA, 250 ml sterile bottle w/ catalogue number G0525). Test compounds were kept spinning and were only drawn into the syringes prior to study commencement. Animals were bled via tail snip to determine basal glucose levels prior to dosing of treatments. An Ascensia BREEZE Blood Glucose Monitoring System by Bayer (using unique 10-test disks) was used for determining glucose levels. The bleeds started at approximately 12:45 pm and dosing started, at 1-minute intervals, immediately after. All groups were dosed 30 minutes prior to glucose administration at a dose volume of 10 ml/kg (the dose volume was calculated separately for each individual animal). Thirty minutes after the first dose animals were bled again for a second baseline, or T=0, and immediately dosed with glucose via an i.p. injection. The exact dose volume for glucose was also calculated separately for each individual animal. Glucose measurements were taken at −30 min prior to compound dose, at t=0 (immediately prior to glucose dose), and at 15, 30, 45, 60, 90 min post glucose dose.
(§2) Glucose values were entered into an Excel sheet and graphed in GraphPad Prism. The following were calculated from Prism: Change from −30 to 0 BSLN Glucose, Raw Glucose AUC −30 to 90 min, Delta Glucose AUC −30 to 90 min, Raw Glucose AUC 0 to 90 min, Delta Glucose AUC 0 to 90 min.

The subject of the next assay is C57b16 mouse. Put plainly: C57b16 mouse OGTT. The format is in vivo. To be noted: dosed 30 min prior to glucose PO 3 g/kg. As for the experimental part:
as §1, §2
The assay design is the same as that described above for the C57b16 mouse IPGTT. The difference is that glucose was dosed PO at 3 g/kg, 7.5 ml/kg of 40% glucose.

Usually EC50 stands for the concentration needed to bring the measured effect to its halfway point. In the case of `CC(C)Oc1cc(C(F)(F)F)sc1COc1c(F)cc(CCC(=O)O)cc1F` [Cpd 16, 3-(3,5-Difluoro-4-{[3-(1-methylethoxy)-5-(trifluoromethyl)thiophen-2-yl]methoxy}phenyl)propanoic acid], the figures for the EC50 (in assay [1]; at Human GPR120 short form) were 1510 nM and 382 nM, respectively.
Consider `CCc1ccc(-c2nsc(C(F)(F)F)c2COc2c(F)cc(CCC(=O)O)cc2F)cc1` [Cpd 70, 3-(4-[[3-(4-ethylphenyl)-5-(trifluoromethyl)-1,2-thiazol-4-yl]methoxy]-3,5-difluorophenyl)propanoic acid], for which the “C57 IPGTT 30 mg/kg” value in the assay with C57bl/6J Mice (30 mg/kg) was −88.
Take `O=C(O)CCc1cc(F)c(OCc2c(-c3ccc(Cl)cc3)nsc2C(F)(F)F)c(F)c1` [Cpd 79, 3-(4-[[3-(4-chlorophenyl)-5-(trifluoromethyl)-1,2-thiazol-4-yl]methoxy]-3,5-difluorophenyl)propanoic acid]: the “C57 IPGTT 10 mg/kg” value in the assay with C57bl/6J Mice is given as −60.
Consider `OCCCc1ccc(OCc2c(Cl)nsc2-c2ccc(Cl)cc2)c(F)c1F` [Cpd 102, 3-(4-((3-chloro-5-(4-chlorophenyl)isothiazol-4-yl)methoxy)-2,3-difluorophenyl)propan-1-ol], for which the “C57 OGTT 3 mg/kg” value with C57b16 mouse is −32.
With `O=C(O)CCc1ccc(OCc2c(-c3ccc(Cl)cc3)nsc2C(F)(F)F)c(F)c1F` [Cpd 106, 3-(4-[[3-(4-chlorophenyl)-5-(trifluoromethyl)-1,2-thiazol-4-yl]methoxy]-2,3-difluorophenyl)propanoic acid], the “C57 IPGTT 10 mg/kg” value with C57bl/6J Mice is given as −34.
For the compound `Cc1ccc(-c2snc(Cl)c2COc2c(F)cc(CCC(=O)O)c(F)c2F)c(F)c1` [Cpd 107, 3-(4-{[3-Chloro-5-(2-fluoro-4-methylphenyl)isothiazol-4-yl]methoxy}-2,3,5-trifluorophenyl)propanoic acid], the values for the EC50 (in assay [1]; at Human GPR120 short form) were 118 nM and 89 nM, respectively.
The like results for `COc1ccc(-c2nsc(C(F)(F)F)c2COc2ccc(CCC(=O)O)c(C)c2C)c(F)c1` [Cpd 120, 3-(4-{[3-(2-Fluoro-4-methoxyphenyl)-5-(trifluoromethyl)isothiazol-4-yl]methoxy}-2,3-dimethylphenyl)propanoic acid] were, in that order, 310 nM and 107 nM.
With `O=C(O)CCc1ccc(OCc2c(C(F)(F)F)nsc2-c2ccc(Cl)cc2)c(Cl)c1Cl` [Cpd 181, 3-(2,3-Dichloro-4-{[5-(4-chlorophenyl)-3-(trifluoromethyl)isothiazol-4-yl]methoxy}phenyl)propanoic acid], the concentration giving a half-maximal response (EC50) in assay [1] stood at 819 nM; on Human GPR120 short form, 274 nM.
As for `Cc1ccc(-c2snc(C(C)C)c2COc2c(F)cc(CCC(=O)O)cc2F)c(F)c1` [Cpd 191], the EC50 at Human GPR120 short form came out at 323 nM.
With `Cc1c(CCC(=O)O)ccc(OCc2c(C(C)(C)C)nsc2C(F)(F)F)c1C` [Cpd 198, 3-(4-{[3-tert-Butyl-5-(trifluoromethyl)isothiazol-4-yl]methoxy}-2,3-dimethylphenyl)propanoic acid], the EC50 in assay [1] stood at 1940 nM; on Human GPR120 short form it was 405 nM.
Take `CCc1ccc(-c2cc(C(F)(F)F)sc2COc2ccc(CCC(=O)O)c(C)c2C)cc1` [Cpd 250, 3-(4-{[3-(4-Ethylphenyl)-5-(trifluoromethyl)thiophen-2-yl]methoxy}-2,3-dimethylphenyl)propanoic acid]: the EC50 at Human GPR120 short form came to 3230 nM.
Same read-out and setting: the value for `CCc1ccc(-c2nsc(C(F)(F)F)c2COc2c(F)ccc(CC(C)CO)c2F)cc1` (centres unmarked) [Cpd 251, 3-(3-{[3-(4-Ethylphenyl)-5-(trifluoromethyl)isothiazol-4-yl]methoxy}-2,4-difluorophenyl)-2-methylpropan-1-ol] was above 5000 nM.

For the origin of these results see patent US10118922B2 (Janssen Pharmaceutica NV, priority 2013, dated 2018).
